Experimental data from article PMC12951562, “SH2scan: Mapping SH2 Domain-Ligand Binding Selectivity for Inhibitors and Degraders” (Journal of Medicinal Chemistry, 2026).
Non-standard residues stand in square brackets, D forms with d. Residues, ends and D or L forms follow the SMILES beside them. pY = N[C@@H](Cc1ccc(OP(=O)(O)O)cc1)C(=O)O

Key:
Test in all cases: biochemical
Format in all cases: binding
PIK3R1(SH2dom.N-term.) = target: T1, PIK3R1(SH2dom.N-term.) (Homo sapiens, UniProt P27986)
T1 construct: SH2dom.N-term. denotes SH2 domain closest to N-terminus of protein; made in house; host or cells: HEK293 (transient transfection, unpurified extract)

PIK3R2(SH2dom.N-term.) = target: T2, PIK3R2(SH2dom.N-term.) (Homo sapiens, UniProt O00459)
T2 construct: SH2dom.N-term. denotes SH2 domain closest to N-terminus of protein; made in house; host or cells: HEK293 (transient transfection, unpurified extract)

PIK3R3(SH2dom.N-term.) = target: T3, PIK3R3(SH2dom.N-term.) (Homo sapiens, UniProt Q92569)
T3 construct: SH2dom.N-term. denotes SH2 domain closest to N-terminus of protein; made in house; host or cells: HEK293 (transient transfection, unpurified extract)

BLK = target: T4, BLK (Homo sapiens, UniProt P51451); details: dose-response; read-out: KD
T4 construct: the DNA-tagged SH2 domain concentrations used in this study were <0.1 nM; made in house; host or cells: HEK293 (transient transfection; unpurified extract)

FYN = target: T5, FYN (Homo sapiens, UniProt P06241); details: dose-response; read-out: KD
T5 construct: the DNA-tagged SH2 domain concentrations used in this study were <0.1 nM; made in house; host or cells: HEK293 (transient transfection; unpurified extract)

YES = target: T6, YES (Homo sapiens, UniProt P07947); details: dose-response; read-out: KD
T6 construct: the DNA-tagged SH2 domain concentrations used in this study were <0.1 nM; made in house; host or cells: HEK293 (transient transfection; unpurified cell extract)

PTPN6(SH2dom.N-term.) = target: T7, PTPN6(SH2dom.N-term.) (Homo sapiens, UniProt P29350)
T7 construct: SH2dom.N-term. denotes SH2 domain closest to N-terminus of protein; made in house; host or cells: HEK293 (transient transfection, unpurified extract)
T7 sequence (P29350 4-100 limits assumed): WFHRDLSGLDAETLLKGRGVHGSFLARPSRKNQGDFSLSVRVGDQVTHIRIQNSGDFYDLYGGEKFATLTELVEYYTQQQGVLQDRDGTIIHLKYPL

GADS = target: T8, GADS (Homo sapiens, UniProt O75791)
T8 construct: the DNA-tagged SH2 domain concentrations used in this study were <0.1 nM; made in house; host or cells: HEK293 (transient transfection; unpurified extract)
T8 sequence (O75791 58-149 limits assumed): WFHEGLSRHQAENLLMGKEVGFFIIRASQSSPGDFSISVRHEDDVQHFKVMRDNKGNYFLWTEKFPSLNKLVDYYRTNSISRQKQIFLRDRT

HSH2D = target: T9, HSH2D (Homo sapiens, UniProt Q96JZ2)
T9 construct: the DNA-tagged SH2 domain concentrations used in this study were <0.1 nM; made in house; host or cells: HEK293 (transient transfection, unpurified extract)
T9 sequence (Q96JZ2 34-125 limits assumed): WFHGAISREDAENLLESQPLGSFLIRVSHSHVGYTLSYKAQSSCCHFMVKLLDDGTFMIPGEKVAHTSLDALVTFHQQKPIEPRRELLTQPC

GRB2 = target: T10, GRB2 (Homo sapiens, UniProt P62993)
T10 construct: the DNA-tagged SH2 domain concentrations used in this study were <0.1 nM; made in house; host or cells: HEK293 (transient transfection; unpurified extract)

PTPN11(SH2dom.C-term.) = target: T11, PTPN11(SH2dom.C-term.) (Homo sapiens, UniProt Q06124)
T11 construct: SH2dom.C-term. denotes SH2 domain closest to C-terminus of protein; made in house; host or cells: HEK293 (transient transfection, unpurified extract)
T11 sequence (Q06124 112-216 limits assumed): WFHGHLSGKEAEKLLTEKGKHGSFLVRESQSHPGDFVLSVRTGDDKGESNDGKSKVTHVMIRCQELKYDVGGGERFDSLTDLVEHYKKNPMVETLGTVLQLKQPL

CBLB = target: T12, CBLB (Homo sapiens, UniProt Q13191)
T12 construct: the DNA-tagged SH2 domain concentrations used in this study were <0.1 nM; made in house; host or cells: HEK293 (transient transfection; unpurified extract)

CBLC = target: T13, CBLC (Homo sapiens, UniProt Q9ULV8)
T13 construct: the DNA-tagged SH2 domain concentrations used in this study were <0.1 nM; made in house; host or cells: HEK293 (transient transfection; unpurified extract)
T13 sequence (Q9ULV8 219-321 limits assumed): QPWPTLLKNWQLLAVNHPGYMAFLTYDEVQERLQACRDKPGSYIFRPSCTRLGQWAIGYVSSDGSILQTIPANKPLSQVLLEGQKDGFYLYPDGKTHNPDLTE

GRAP = target: T14, GRAP (Homo sapiens, UniProt Q13588)
T14 construct: the DNA-tagged SH2 domain concentrations used in this study were <0.1 nM; made in house; host or cells: HEK293 (transient transfection; unpurified extract)

SRMS = target: T15, SRMS (Homo sapiens, UniProt Q9H3Y6)
T15 construct: made in house; host or cells: HEK293 (transient transfection), unpurified extract
T15 sequence (Q9H3Y6 whole entry): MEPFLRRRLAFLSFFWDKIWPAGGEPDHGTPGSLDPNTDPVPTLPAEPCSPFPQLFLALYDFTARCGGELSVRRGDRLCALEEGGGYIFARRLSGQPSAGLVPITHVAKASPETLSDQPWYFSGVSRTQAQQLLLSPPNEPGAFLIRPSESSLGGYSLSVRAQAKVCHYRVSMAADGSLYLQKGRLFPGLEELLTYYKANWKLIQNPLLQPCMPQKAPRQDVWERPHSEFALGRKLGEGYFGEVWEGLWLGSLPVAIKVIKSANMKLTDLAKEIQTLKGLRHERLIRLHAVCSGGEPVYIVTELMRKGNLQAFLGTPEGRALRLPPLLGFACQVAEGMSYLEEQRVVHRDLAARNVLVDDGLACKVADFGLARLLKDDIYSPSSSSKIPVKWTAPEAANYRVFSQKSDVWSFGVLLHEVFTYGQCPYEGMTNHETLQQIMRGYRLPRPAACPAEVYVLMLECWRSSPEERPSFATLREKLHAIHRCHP

T1 sequence (P27986 333-428 limits assumed): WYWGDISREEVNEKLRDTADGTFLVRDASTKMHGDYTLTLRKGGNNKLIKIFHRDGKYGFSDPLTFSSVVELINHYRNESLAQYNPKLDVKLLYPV
T6 sequence (P07947 158-255 limits assumed): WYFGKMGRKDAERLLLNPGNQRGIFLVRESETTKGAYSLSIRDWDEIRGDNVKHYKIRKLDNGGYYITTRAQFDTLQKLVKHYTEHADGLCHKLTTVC
T2 sequence (O00459 330-425 limits assumed): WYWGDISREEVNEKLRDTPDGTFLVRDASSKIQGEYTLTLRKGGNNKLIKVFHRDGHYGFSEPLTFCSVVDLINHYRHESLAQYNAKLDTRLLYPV
T5 sequence (P06241 149-246 limits assumed): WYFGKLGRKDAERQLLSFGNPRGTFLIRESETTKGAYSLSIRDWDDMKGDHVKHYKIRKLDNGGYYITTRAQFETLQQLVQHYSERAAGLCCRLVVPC
T12 sequence (Q13191 241-343 limits assumed): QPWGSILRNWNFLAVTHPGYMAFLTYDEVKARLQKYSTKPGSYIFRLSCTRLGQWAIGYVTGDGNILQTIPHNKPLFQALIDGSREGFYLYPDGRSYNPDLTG
T4 sequence (P51451 124-220 limits assumed): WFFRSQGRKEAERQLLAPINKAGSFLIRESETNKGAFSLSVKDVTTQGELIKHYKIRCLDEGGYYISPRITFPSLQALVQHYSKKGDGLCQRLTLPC
T10 sequence (P62993 60-152 limits assumed): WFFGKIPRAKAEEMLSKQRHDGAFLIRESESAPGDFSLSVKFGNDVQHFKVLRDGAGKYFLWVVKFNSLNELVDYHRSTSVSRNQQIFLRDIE
T14 sequence (Q13588 60-154 limits assumed): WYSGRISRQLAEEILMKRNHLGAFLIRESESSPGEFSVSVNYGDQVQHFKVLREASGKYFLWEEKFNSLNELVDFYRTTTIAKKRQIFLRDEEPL

## CSCC[C@H](NC(=O)[C@H](CC(=O)O)NC(=O)[C@H](CC(C)C)NC(=O)[C@H](CCSC)NC(=O)[C@@H]1CCCN1C(=O)[C@@H](NC(=O)[C@H](Cc1ccc(OP(=O)(O)O)cc1)NC(=O)[C@H](CC(=O)O)NC(=O)[C@@H](NC(=O)[C@H](CO)NC(=O)[C@H](CCC(=O)O)NC(=O)[C@H](CC(=O)O)NC(=O)[C@H](CCCCN)NC(=O)[C@H](CO)NC(=O)[C@H](CCSC)NC(=O)[C@H](CC(=O)O)NC(C)=O)C(C)C)C(C)C)C(=O)N[C@@H](CCCCN)C(N)=O (Ac-DMSKDESVD[pY]VPMLDMK-NH2)
PIK3R1(SH2dom.N-term.)
  Kd: 41.2 ± 9.77 nM
PIK3R2(SH2dom.N-term.)
  Kd: 46.7 ± 6.22 nM
PIK3R3(SH2dom.N-term.)
  Kd: 78.5 ± 26.1 nM

## CC[C@H](C)[C@H](NC(=O)[C@@H]1CCCN1C(=O)[C@@H](NC(=O)[C@H](CCC(=O)O)NC(=O)[C@H](CCC(=O)O)NC(=O)[C@H](Cc1ccc(OP(=O)(O)O)cc1)NC(=O)[C@H](CCC(N)=O)NC(=O)[C@@H]1CCCN1C(=O)[C@H](CCC(=O)O)NC(C)=O)[C@@H](C)CC)C(=O)N[C@@H](Cc1ccc(O)cc1)C(=O)N[C@@H](CC(C)C)C(=O)N[C@@H](CCCCN)C(N)=O (Ac-EPQ[pY]EEIPIYLK-NH2)
BLK
  Kd: 488 ± 188 nM
FYN
  Kd: 31.8 ± 2.15 nM
YES
  Kd: 234 ± 37.6 nM

## CC(=O)N[C@@H](CCC(=O)O)C(=O)N[C@@H](CCC(N)=O)C(=O)N[C@@H](CC(=O)O)C(=O)N1CCC[C@H]1C(=O)N[C@@H](CCC(N)=O)C(=O)N[C@@H](CCC(=O)O)C(=O)N[C@H](C(=O)N[C@H](C(=O)N[C@@H](Cc1ccc(OP(=O)(O)O)cc1)C(=O)N[C@@H](C)C(=O)N[C@@H](CCC(N)=O)C(=O)N[C@@H](CC(C)C)C(=O)N[C@@H](CC(N)=O)C(=O)N[C@@H](Cc1c[nH]cn1)C(N)=O)[C@@H](C)O)C(C)C (Ac-EQDPQEVT[pY]AQLNH-NH2)
PTPN6(SH2dom.N-term.)
  Kd: 3860 ± 864 nM

## CSCC[C@H](NC(=O)[C@H](Cc1ccc(OP(=O)(O)O)cc1)NC(=O)[C@H](CC(=O)O)NC(=O)[C@H](CO)NC(C)=O)C(=O)N[C@@H](CC(N)=O)C(=O)N[C@@H](CCSC)C(=O)N[C@H](C(=O)N1CCC[C@H]1C(=O)N[C@@H](CCCNC(=N)N)C(=O)N[C@@H](CCCNC(=N)N)C(=O)N1CCC[C@H]1C(N)=O)[C@@H](C)O (Ac-SD[pY]MNMTPRRP-NH2)
GADS
  Kd: 244 ± 73.3 nM
HSH2D
  Kd: 873 ± 159 nM

## CC[C@H](C)[C@H](NC(=O)[C@H](Cc1ccc(OP(=O)(O)O)cc1)NC(=O)[C@H](CO)NC(C)=O)C(=O)N[C@@H](CC(N)=O)C(=O)N[C@H](C(=O)N1CCC[C@H]1C(=O)N[C@@H](Cc1ccccc1)C(=O)N[C@H](C(=O)N[C@@H](CO)C(N)=O)[C@@H](C)O)C(C)C (Ac-S[pY]INVPFTS-NH2)
GRB2
  Kd: 69.4 ± 19.4 nM

## CC[C@H](C)[C@H](NC(=O)[C@@H](NC(=O)[C@H](C)NC(=O)[C@H](Cc1ccc(OP(=O)(O)O)cc1)NC(=O)[C@@H](NC(=O)[C@@H]1CCCN1C(=O)[C@H](CCC(=O)O)NC(=O)[C@@H]1CCCN1C(=O)[C@H](CO)NC(=O)[C@H](C)NC(C)=O)[C@@H](C)CC)[C@@H](C)O)C(=O)N[C@@H](CC(=O)O)C(=O)N[C@@H](Cc1ccccc1)C(=O)N[C@@H](CC(=O)O)C(N)=O [Ac-ASPEPIpYATIDFD-NH2]
PTPN11(SH2dom.C-term.)
  Kd: 403 ± 198 nM

## CC(=O)N[C@@H](CCC(=O)O)C(=O)N[C@@H](CC(=O)O)C(=O)N[C@@H](CO)C(=O)N[C@@H](Cc1ccccc1)C(=O)N[C@@H](CC(C)C)C(=O)N[C@@H](CCC(N)=O)C(=O)N[C@@H](CCCNC(=N)N)C(=O)N[C@@H](Cc1ccc(OP(=O)(O)O)cc1)C(=O)N[C@@H](CO)C(=O)N[C@@H](CO)C(=O)N[C@@H](CC(=O)O)C(=O)N1CCC[C@H]1C(=O)N[C@H](C(N)=O)[C@@H](C)O [Ac-EDSFLQRpYSSDPT-NH2]
CBLB
  Kd: 373 ± 114 nM
CBLC
  Kd: 146 ± 52 nM

## CC(=O)N[C@@H](CCCCN)C(=O)N1CCC[C@H]1C(=O)N[C@@H](Cc1ccccc1)C(=O)N[C@@H](Cc1ccc(OP(=O)(O)O)cc1)C(=O)N[C@H](C(=O)N[C@@H](CC(N)=O)C(=O)N[C@H](C(=O)N[C@@H](CCC(=O)O)C(=O)N[C@@H](Cc1ccccc1)C(N)=O)C(C)C)C(C)C [Ac-KPFpYVNVEF-NH2] (Ac-KPF[pY]VNVEF-NH2)
GRAP
  Kd: 21.3 ± 4.83 nM
SRMS
  Kd: 23600 ± 3030 nM
